Tests used:
[1] = tested on: MCF7; assay: NCI 60 five-dose screen MCF7; assay type: cell-based; conditions: Homo sapiens, five-dose
[2] = tested on: A498; assay: NCI 60 five-dose screen A498; assay type: cell-based; conditions: Homo sapiens, five-dose
[3] = tested on: OVCAR-3; assay: NCI 60 five-dose screen OVCAR-3; assay type: cell-based; conditions: Homo sapiens, five-dose
[4] = tested on: MALME-3M; assay: NCI 60 five-dose screen MALME-3M; assay type: cell-based; conditions: Homo sapiens, MALME-3M, five-dose
[5] = tested on: T-47D; assay: NCI 60 five-dose screen T-47D; assay type: cell-based; conditions: Homo sapiens, T47D, five-dose
[6] = tested on: M14; assay: NCI 60 five-dose screen M14; assay type: cell-based; conditions: Homo sapiens, five-dose
[7] = tested on: SK-MEL-5; assay: NCI 60 five-dose screen SK-MEL-5; assay type: cell-based; conditions: Homo sapiens, five-dose
[8] = tested on: CAKI-1; assay: NCI 60 five-dose screen CAKI-1; assay type: cell-based; conditions: Homo sapiens, five-dose
[9] = tested on: RPMI-8226; assay: NCI 60 five-dose screen RPMI-8226; assay type: cell-based; conditions: Homo sapiens, five-dose
[10] = tested on: OVCAR-4; assay: NCI 60 five-dose screen OVCAR-4; assay type: cell-based; conditions: Homo sapiens, five-dose
[11] = tested on: TK-10; assay: NCI 60 five-dose screen TK-10; assay type: cell-based; conditions: Homo sapiens, five-dose
[12] = tested on: MDA-MB-468; assay: NCI 60 five-dose screen MDA-MB-468; assay type: cell-based; conditions: Homo sapiens, five-dose
[13] = tested on: IGROV1; assay: NCI 60 five-dose screen IGROV1; assay type: cell-based; conditions: Homo sapiens, IGROV-1, five-dose
[14] = tested on: SK-MEL-28; assay: NCI 60 five-dose screen SK-MEL-28; assay type: cell-based; conditions: Homo sapiens, five-dose
[15] = tested on: NCI-H226; assay: NCI 60 five-dose screen NCI-H226; assay type: cell-based; conditions: Homo sapiens, five-dose
[16] = tested on: NCI-H23; assay: NCI 60 five-dose screen NCI-H23; assay type: cell-based; conditions: Homo sapiens, five-dose
[17] = tested on: HOP-62; assay: NCI 60 five-dose screen HOP-62; assay type: cell-based; conditions: Homo sapiens, five-dose
[18] = tested on: HL-60(TB); assay: NCI 60 five-dose screen HL-60(TB); assay type: cell-based; conditions: Homo sapiens, five-dose
[19] = tested on: SF-539; assay: NCI 60 five-dose screen SF-539; assay type: cell-based; conditions: Homo sapiens, five-dose
[20] = tested on: ACHN; assay: NCI 60 five-dose screen ACHN; assay type: cell-based; conditions: Homo sapiens, five-dose
[21] = tested on: 786-0; assay: NCI 60 five-dose screen 786-0; assay type: cell-based; conditions: Homo sapiens, five-dose
[22] = tested on: BT-549; assay: NCI 60 five-dose screen BT-549; assay type: cell-based; conditions: Homo sapiens, five-dose
[23] = tested on: MOLT-4; assay: NCI 60 five-dose screen MOLT-4; assay type: cell-based; conditions: Homo sapiens, five-dose
[24] = tested on: HS 578T; assay: NCI 60 five-dose screen HS 578T; assay type: cell-based; conditions: Homo sapiens, five-dose
[25] = tested on: A549/ATCC; assay: NCI 60 five-dose screen A549/ATCC; assay type: cell-based; conditions: Homo sapiens, five-dose
[26] = tested on: HCC-2998; assay: NCI 60 five-dose screen HCC-2998; assay type: cell-based; conditions: Homo sapiens, five-dose
[27] = tested on: SR; assay: NCI 60 five-dose screen SR; assay type: cell-based, human; conditions: five-dose
[28] = tested on: U251; assay: NCI 60 five-dose screen U251; assay type: cell-based; conditions: Homo sapiens, U-251, five-dose
[29] = read-out: LC50 (the source's name) (converted)
[30] = read-out: LC50 (the source's name)

FC(F)(F)c1cc2c(Cl)ncnc2n1CCC1CCOCC1 [NUCC-0226674]
GI50 [1]: 11.5 µM
IC50 [1]: 19.1 µM
IC (TGI) [1]: 36.3 µM
CC50 [1, 29]: ≥ 100 µM
GI50 [2]: 16.2 µM
IC50 [2]: 30.9 µM
IC (TGI) [2]: 30.2 µM
CC50 [2, 29]: 55 µM
GI50 [3]: 12.3 µM
IC50 [3]: 23.4 µM
IC (TGI) [3]: 27.5 µM
CC50 [3, 29]: 61.7 µM
GI50 [4]: 15.1 µM
IC50 [4]: 29.5 µM
IC (TGI) [4]: 29.5 µM
CC50 [4, 29]: 56.2 µM
GI50 [5]: 20.4 µM
IC50 [5]: 47.9 µM
IC (TGI) [5]: 60.3 µM
CC50 [5, 30]: ≥ 100 µM
GI50 [6]: 3.72 µM
IC50 [6]: 6.31 µM
IC (TGI) [6]: 16.2 µM
CC50 [6, 29]: 50.1 µM
GI50 [7]: 2.82 µM
IC50 [7]: 4.37 µM
IC (TGI) [7]: 9.33 µM
CC50 [7, 29]: 30.2 µM
GI50 [8]: 14.5 µM
IC50 [8]: 26.9 µM
IC (TGI) [8]: 30.2 µM
CC50 [8, 29]: 63.1 µM
GI50 [9]: 14.5 µM
IC50 [9]: 25.7 µM
IC (TGI) [9]: 41.7 µM
CC50 [9, 30]: ≥ 100 µM
GI50 [10]: 18.6 µM
IC50 [10]: 38 µM
IC (TGI) [10]: 50.1 µM
CC50 [10, 29]: ≥ 100 µM
GI50 [11]: 17.4 µM
IC50 [11]: 36.3 µM
IC (TGI) [11]: 36.3 µM
CC50 [11, 29]: 77.6 µM
GI50 [12]: 1.66 µM
IC50 [12]: 3.8 µM
IC (TGI) [12]: 3.47 µM
CC50 [12, 29]: 7.24 µM
GI50 [13]: 1.78 µM
IC50 [13]: 3.16 µM
IC (TGI) [13]: 3.47 µM
CC50 [13, 29]: 6.76 µM
GI50 [14]: 2.63 µM
IC50 [14]: 4.57 µM
IC (TGI) [14]: 6.03 µM
CC50 [14, 29]: 21.4 µM
GI50 [15]: 13.8 µM
IC50 [15]: 30.2 µM
IC (TGI) [15]: 28.8 µM
CC50 [15, 29]: 58.9 µM
GI50 [16]: 2.57 µM
IC50 [16]: 4.9 µM
IC (TGI) [16]: 10 µM
CC50 [16, 29]: 34.7 µM
GI50 [17]: 17 µM
IC50 [17]: 33.1 µM
IC (TGI) [17]: 35.5 µM
CC50 [17, 29]: 72.4 µM
GI50 [18]: 2.24 µM
IC50 [18]: 4.17 µM
IC (TGI) [18]: 5.01 µM
CC50 [18, 29]: 44.7 µM
GI50 [19]: 13.8 µM
IC50 [19]: 24.5 µM
IC (TGI) [19]: 27.5 µM
CC50 [19, 29]: 56.2 µM
GI50 [20]: 11 µM
IC50 [20]: 18.6 µM
IC (TGI) [20]: 26.3 µM
CC50 [20, 29]: 61.7 µM
GI50 [21]: 16.2 µM
IC50 [21]: 28.2 µM
IC (TGI) [21]: 32.4 µM
CC50 [21, 29]: 64.6 µM
GI50 [22]: 10.2 µM
IC50 [22]: 23.4 µM
IC (TGI) [22]: 22.4 µM
CC50 [22, 29]: 50.1 µM
GI50 [23]: 2.34 µM
IC50 [23]: 4.27 µM
IC (TGI) [23]: 5.5 µM
CC50 [23, 30]: ≥ 100 µM
GI50 [24]: 12 µM
IC50 [24]: 70.8 µM
IC (TGI) [24]: 45.7 µM
CC50 [24, 30]: ≥ 100 µM
GI50 [25]: 21.9 µM
IC50 [25]: 34.7 µM
IC (TGI) [25]: 56.2 µM
CC50 [25, 29]: ≥ 100 µM
GI50 [26]: 1.62 µM
IC50 [26]: 2.95 µM
IC (TGI) [26]: 3.02 µM
CC50 [26, 29]: 5.62 µM
GI50 ([27]; Homo sapiens): 2.04 µM
IC50 ([27]; Homo sapiens): 3.72 µM
CC50 ([27]; Homo sapiens, read-out: LC50 (the source's name)): ≥ 100 µM
TGI [27]: 5.27 −log[M]
GI50 [28]: 2.09 µM
IC50 [28]: 3.24 µM
IC (TGI) [28]: 5.62 µM
CC50 [28, 29]: 28.2 µM

— US20240109903A1, “SUBSTITUTED HETEROCYCLES FOR TREATING CANCER” (Northwestern University, priority 2022, published 2024)
